Assay results as given in patent publication US6664231B1, “Anti-fungal peptides” (priority 1993, dated 2003).

Experiments:
[1] = system: Candida albicans SLU-1; test: Radial diffusion assay (Example 3), wild type strain; assay type: cell-based; details: FIG. 2A
Procedure: For the radial diffusion assays, Candida albicans SLU-1 were grown as described above and SLU-2G were grown overnight in Sabouraud dextrose broth supplemented with 10 μg/mL amphotericin B and 5 μg/mL ceftriaxone at 37° C. Cultures were diluted 1:25 into fresh, unsupplemented broth and allowed to grow for 5 hours at 37° C. Cells were pelleted at 1,500×g for 5 minutes at 4° C. Supernatant was decanted and replaced with 5 mL of 10 mM phosphate buffer, pH 7.4. After centrifugation the cell pellets were resuspended with 5 mL phosphate buffer for an OD570 determination. One OD570 for SLU-1 cells was 3×10^7 CFU/mL and for SLU-2G cells was 5×10^6 CFU/mL.
Cells were added to 10 mL of molten, cooled (˜45° C.) underlayer agarose to a concentration of 1×10^6/mL and the suspension was poured into a level square petri plate with gentle rocking to allow even distribution and solidification to a uniform thickness of about 1 mm. Wells were cut into the hardened agarose with a sterilize, 3 mm diameter punch with vacuum.
Peptides were two-fold serially diluted with DPBS from a starting concentration of approximately 1 mg/mL. Amphotericin B and nystatin were similarly diluted starting at 100 and 225 μg/mL, respectively. Five μL were added per well and allowed to diffuse at 37° C. for 1.5-2.0 hours. Then 10 mL of molten overlayer agarose were added and the plates were incubated inverted at 37° C. overnight. Plates were stained with a dilute Coomassie solution, inhibition zones were measured with calipers and net areas were calculated, then converted to pmol values by PROBIT analysis. The results of a representative experiment are shown in FIG. 2A for the SLU-1 strain and FIG. 2B for the SLU-2G strain. In FIGS. 2A and 2B, the fungicidal activity is represented for XMP.13 as open circles; for XMP.37 as closed circles; for XMP.97 as open triangles; for XMP.127 as closed triangles; for amphotericin B as open squares; and for nystatin as closed squares. The pmol for a 30 mm^2 zone of inhibition were calculated to be: for XMP.13, 689 pmol against SLU-1 and 129 pmol against SLU-2G; for XMP.37, 231 pmol against SLU-1 and 75 pmol against SLU-2G; for XMP.97, 670 pmol against SLU-1 and 161 pmol against SLU-2G; for XMP.127, 935 pmol against SLU-1 and 116 pmol against SLU-2G; for amphotericin B, 36 pmol against SLU-1 and >541 pmol for SLU-2G; and for nysttin, 98 pmol against SLU-1 and >1,215 pmol against SLU-2G.

[2] = system: C. albicans (SLU-1 strain); test: Survival of mice systemically infected with Candida albicans; assay type: in vivo, mouse
Procedure: Groups of 15 male DBA/2J mice at age 6-8 weeks (Jackson Laboratory, Bar Harbor, Me.) were inoculated with 1.24×10^5 C. albicans (SLU-1 strain as described in Example 2) by intravenous injection into the tail vein. Cells were prepared for animal injection as follows. A single colony was selected and used to inoculate a 5 mL tube of Sabouraud dextrose broth. Incubation was at 30° C. with shaking to allow aeration for a period of 15-18 hours. Four mL of the overnight culture were added to 100 mL of fresh Sabouraud dextrose broth (1:25 dilution) and incubated for 4 hours. The 100 mL culture was pelleted at 1,500×g for 5 minutes. Cells were washed twice by adding 20 mL D-PBS, vortexing and re-centrifuging. Cells were collected in one tube and a sample is diluted 1:10 to be measured by OD570 (1 OD unit=3×10^7 CFU/mL). The cells were diluted to the desired dose in D-PBS and kept at 4° C. until used. Doses were confirmed by performing serial ten-fold dilutions and plating 50 μl per dilution on Sabouraud dextrose agar. Colonies were counted the following day after overnight incubation at 37° C. A […] culture yielded approximately 1×10^9 CFU/mL.
Immediately after fungal challenge, the mice were intravenously injected via the tail vein with a 0.1 mL volume of 10 mg/kg XMP.36, 5 mg/kg XMP.97, 10 mg/kg XMP.102, 1 mg/kg amphotericin B (Sigma, St. Louis, Mo.), or phosphate buffered saline (PBS) as a control. Treatment with the same amounts of peptides, amphotericin B or PBS was repeated at Day 2 and Day 4 (except that the second dose of XMP.36 was given at a dose of 5 mg/kg). Mice were monitored twice daily for mortality until termination of the study at Day 28. […] In FIG. 4, the symbol “X” represents survival after treatment with amphotericin B; open squares, treatment with XMP.97; open circles, treatment with XMP.36; open diamonds, treatment with XMP.102; and open triangles, treatment with buffer. Statistical significance was evaluated using the Lifetest Survival Curve analysis. [Lawless, Statistical Models and Methods for Lifetime Data, John Wiley & Sons, New York (1982).] The duration and almost linear decline in survival is analogous to human opportunistic candidiasis.
In additional 3-dose studies, groups of 15 mice were injected with a fungal challenge of 0.5×10^5 Candida cells, prepared for injection as described above, followed by treatment at Day 0, Day 2 and Day 5 with a 0.1 mL volume of 10 mg/kg XMP.127, 5 mg/kg XMP.13, 5 mg/kg XMP.37, 1 mg/kg amphotericin B, or PBS as a control. […] In FIG. 5, the symbol “X” represents survival after treatment with amphotericin B; open circles, treatment with XMP.127; filled triangles, treatment with buffer; open squares, treatment with XMP.37; open triangles, treatment with XMP.13.
Further studies to determine the effectiveness of anti-fungal peptides were performed at an increased dosing regimen (6 doses rather than 3 doses as described above). Groups of 9 week-old male DBA/2J mice were inoculated with concentrations of 2.7×10^5 Candida cells (prepared as described above) by intravenous injection in the tail vein. Immediately after fungal challenge, the mice were treated with a 0.1 mL volume of 10 mg/kg XMP.284, 1 mg/kg amphotericin B or PBS as a control at Day 0, Day 2, Day 4, Day 7, Day 9 and Day 11. All amphotericin B-treated animals were protected.
Additional 6-dose experiments were conducted as described above, using inocula of 0.5-3.0×10^5 Candida cells and using 0.01, 0.05, 0.1, 0.5, 1.0 or 5.0 mg/kg doses of peptide.

[3] = 0.5×10^5 Candida cells, doses Day 0, 2, 5, 10 mg/kg XMP.127, 5 mg/kg XMP.13, 5 mg/kg XMP.37, 1 mg/kg amphotericin B, FIG. 5
[4] = 2.7×10^5 Candida cells, 10 mg/kg, 6 doses (Day 0, 2, 4, 7, 9, 11), FIG. 6

| Compound | pmol for a 30 mm^2 zone of inhibition against SLU-1 [1] [pmol] | mice survived until Day 28 [2, 3] [%] | mice survived until Day 28 ([2]; 1.24×10^5 C. albicans i.v., 3 doses i.v. (Day 0, 2, 4), 10 mg/kg XMP.36, 5 mg/kg XMP.97, 10 mg/kg XMP.102, 1 mg/kg amphotericin B, FIG. 4) [%] | protection of animals (6-dose study) ([2]; 2.7×10^5 Candida cells, 1 mg/kg, 6 doses) | survival at Day 6 [2, 4] [%] | survival at Day 24 [2, 4] [%] |
| --- | --- | --- | --- | --- | --- | --- |
| C[C@@H]1[C@H](O)[C@@H](C)/C=C/C=C/C=C/C=C/C=C/C=C/C=C/[C@H](O[C@@H]2O[C@H](C)[C@@H](O)[C@H](N)[C@@H]2O)C[C@@H]2O[C@](O)(C[C@@H](O)C[C@@H](O)[C@H](O)CC[C@@H](O)C[C@@H](O)CC(=O)O[C@H]1C)C[C@H](O)[C@H]2C(=O)O [Amphotericin B, amphotericin B, reference compound] | 36 | 100 | 100 | protected |  |  |
| H-KSKVGWAIQLFHKK-NH2 [XMP.37] | 231 | 33 |  |  |  |  |
| H-SKVKWLIQLFHKK-NH2 [XMP.284] |  |  |  |  | 87 | 33 |
| H-KSKVGWLIQLFHKK-NH2 [XMP.13] | 689 | 20 |  |  |  |  |
